# Tests used:
# [1] = system: Tg2567 APP mice; assay: Tg2567 APP mice treated intraperitoneally; type: in vivo; details: 20 mg/kg/d intraperitoneally, three months
# Protocol: N2a Swedish APP cells are incubated with different concentration of Cory and Cory B in the presence or absence of CQ and 3MA. […] Tg2567 APP mice, 3 months old JNPL P301 Tau mice and WT mice intraperitoneally are administrated with 20 mg/kg/d CoryB.
# [2] = system: Beclin-1; assay: Beclin-1 expression and Beclin 1 siRNA depletion in N2a cells; type: cell-based, mouse
# Protocol: FIG. 7: Western blot analysis of expression level of phosphorylated mTOR (p-mTOR) or its substrate P70S6K (p-P70S6K) in N2a cells with treatment of 25 μM Cory B or 0.2 μM rapamycin for 6 hours (FIG. 7A); western blot analysis of Beclin 1 expression in N2a cells with non-target or Beclin 1-specific siRNA treatments followed by Cory B (FIG. 7B)
# To elucidate the molecular mechanism of Cory B action, the classic autophagy controlling pathway, the mTOR pathway is first examined. […] Several other pathways reported to be involved in the activation of autophagy, including AKT, AMPK, MEK/ERK, JNK, and ER stress pathways, and calcium signaling pathway (data not shown), are also tested.
# [3] = system: Inducible PC12 cells; assay: HMGB1 translocation and autophagy in alpha-synuclein inducible PC12 cells; type: cell-based, rat; details: α-syn overexpression induced by Dox, 24 h
# Protocol: Inducible PC12 cells are treated with […] Dox for 24 h in the presence of Corynoxine B (Cory B), rapamycin (Rap), wortmannin (Wort) or chloroquine (CQ). The expressions of induced HA-α-syn, endogenous LC3-II and Beclin-1 are determined by Western blotting (FIG. 10A). The expression of HMGB1 in the cytosolic and nuclear fractions are determined by Western blotting (FIG. 10B). b-actin and Lamin B1 are used as relative loading controls. Data are presented as the mean±SD from three independent experiments. ^#p<0.05 vs. un-induced control; *p<0.05 vs. Dox treatment; **p<0.05 vs. Dox+Cory B treatment.
# [4] = system: PC12 cells; assay: Western blot of autophagy marker LC3-II in PC12 cells; type: cell-based, rat; details: PC12, 0-25 μM, 24 hours
# Protocol: Native and denatured PAGE and Western blotting analysis. Samples to be run under denaturing conditions were lysed with RIPA lysis buffer (150 mM NaCl, 50 mM Tris-HCl, 0.35% sodium deoxycholate, 1 mM EDTA, 1% NP40, 1 mM PMSF, 5 μg/ml aprotinin, 5 μg/ml leupeptin). Samples for native gels were lysed with detergent-free lysis buffer (50 mM Tris/HCl pH 7.4, 175 mM NaCl, 5 mM EDTA pH 8.0, 1 mM PMSF, 5 μg/ml aprotinin, 5 μg/ml leupeptin), and sheared 5 times through a 28-gauge needle followed by 2 times of sonication for 5 seconds according to previously described protocol. For denaturing, SDS-PAGE was performed using Tris-Glycine SDS running buffer and SDS sample buffer, and for native conditions, native-PAGE was run with detergent-free Tris-Glycine running buffer (BN2007, Invitrogen) and 4× native sample buffer (BN2003, Invitrogen) on a pre-casted native PAGE gel (BN1002BOX, Invitrogen). The proteins on the gels were then transferred to PVDF membrane (RPN303F, GE Healthcare) and processed for immunoblotting. Membranes were blocked with 5% non-fat milk and probed with the appropriate primary and secondary antibodies. The desired bands were visualized using the ECL kit (32106, Pierce). The band density was quantified using the ImageJ program and normalized to that of the control group. […]
# [5] = system: L3 Drosophila larvae fat body; assay: LysoTracker Red staining of Drosophila L3 larvae fat body; type: in vivo
# Protocol: Drosophila culture and drug feeding. Flies were raised at 25° C. on standard corn meal medium supplemented with dry yeast. Cory B and rapamycin were initially dissolved in DMSO then diluted in water to desired concentrations. The drug containing water was added into instant Drosophila food and mixed thoroughly. As the control, the same amount of DMSO was also mixed with instant Drosophila food. For the treatment, L3 larvae or adult flies were transferred to the drug-containing medium and incubated for indicated time.
# Lysotracker staining and quantitative analysis of autophagic structures. L3 larvae were dissected using fine forceps under a dissecting microscope and inverted so that fat bodies were exposed to the incubating solution. The larvae carcasses were stained with 100 nM of LysoTracker red in PBS for 5 minutes at room temperature. After the incubation, the larvae carcasses were rinsed once in PBS and transferred to a glass slide with a drop of mounting medium on it. […] Fat body lobes were then covered with a cover slide and immediately observed under a standard fluorescence microscope. Quantitative analysis of lysotracker-positive spots was performed according to previous described protocol with minor revision. […] The numbers of lysotracker-positive spots were quantified from at least 20 randomly selected fluorescent image fields (4700 μm^2/field). […]
smiles,measurement,setting,value
"CC[C@@H]1CN2CC[C@]3(C(=O)Nc4ccccc43)C2C[C@@H]1C(=COC)C(=O)OC (stereo partly shown) [Cory B, Corynoxine B]",Fl-APP/CTF,[1],significantly decrease
same,expression of Beclin-1,[2],does not affect the expression of Beclin-1
same,Cory B-induced autophagy under Beclin-1 siRNA treatment,[2]; Beclin 1-specific siRNA,completely blocks
same,cytosolic translocation of HMGB1 and autophagy,[3],restored the deficient cytosolic translocation of HMGB1 and autophagy
same,LC3-II levels,[4],increases levels of LC3-II
same,LysoTracker Red-positive puncta in fat bodies,"[5]; fed 0.2 mg/ml, 6 hours",induces formation of LysoTracker Red-positive puncta
same,LysoTracker Red puncta formation in presence of 3-MA,[5]; with autophagy inhibitor 3-MA,blocked
